# Reference: patent US11213517B2, “Pharmaceutical combination comprising a T-type calcium channel blocker” (IDORSIA PHARMACEUTICALS LTD, priority 2016, dated 2022)
# Values joined by “and” are separate entries in the source; they are usually repeats but may differ in a detail not shown here. Identical values can stand only once. Like-named read-outs stand apart in the source and are kept apart here.
# Assays:
# [1] = system: audiogenic seizure-sensitive juvenile DBA/2J mice; assay: Audiogenic seizure-sensitive juvenile DBA/2J mouse model of generalized tonic-clonic seizures; type: in vivo; set-up: key: 0 none, 1 wild running, 2 clonus, 3 hind-limb tonic extension; conditions: COMPOUND 1 10 mg/kg 3 h + vehicle 1 h before stimulus, oral gavage; mean ± SEM; 10 mg/kg
# Source text: Audiogenic Seizure-Sensitive Juvenile DBA/2J Mouse Model of Generalized Tonic-Clonic Seizures
# The inbred DBA/2J mouse strain carries an increased general susceptibility for acute generalized convulsive seizures induced by either pharmacological, electrical or, as juvenile, auditory stimuli. At the age of 17 to 28 days (juvenile), they show tonic-clonic convulsions when exposed to a loud tone.
# Male juvenile DBA/2J mice (22-24 days old, body weight between 6.6 and 14.5 grams) were used. Each mouse was placed individually in the exposure chamber, an hemispheric acrylic glass dome (diameter: 50 cm) within a sound-attenuated box. After 60 seconds of habituation, an auditory stimulus of mixed frequency tone (15-20 kHz at 110 dB) was played from a speaker placed on the top center of the dome.
# The sound-attenuated box was equipped with lights and a camera system in order to observe and record the behavioral seizure response classified as following: • stage 0, no response • stage 1, wild running • stage 2, clonus • stage 3, tonic extension of the hind limbs.
# (§1) Different combination efficacy experiments are performed. […] Each experiment consists of four treatment groups: • 1. Vehicle (10% Polyethylene glycol400 (PEG400)/90% methylcellulose (0.5% in water; MC0.5%)), 3 h before exposure to the auditory stimulus+vehicle, 1 h before exposure to the auditory stimulus; • 2. COMPOUND 1 (in 10% PEG400/90% MC0.5%), 3 h before exposure to the auditory stimulus+vehicle, 1 h before exposure to the auditory stimulus; • 3. Vehicle, 3 h before exposure to the auditory stimulus+AED (in 10% PEG400/90% MC0.5%), 1 h before exposure to the auditory stimulus; and • 4. COMPOUND 1 (in 10% PEG400/90% MC0.5%), 3 h before exposure to the auditory stimulus+AED (in 10% PEG400/90% MC0.5%), 1 h before exposure to the auditory stimulus.
# [2] = Plasma and brain concentrations of drugs at the end of the audiogenic seizure experiment (LC-MS); type: in vivo, mouse; conditions: for plasma and brain concentrations after administration of the compounds alone or in combination: juvenile DBA/2J mice; for concentration at 3 h: DBA/2J, mouse
# Method: Briefly, blood was sampled from the vena cava caudalis with a syringe pre-filled with EDTA (ethylenediamine tetraacetic acid) as anticoagulant and centrifuged to yield plasma (for 10 minutes, at 4° C. and 5000 rpm (rounds per minute)). Brain was sampled and homogenized into one volume of cold phosphate buffer (pH 7.4). Following extraction with methanol, concentrations of the compound in plasma and brain were determined using liquid chromatography coupled to mass spectrometry.
# as §1
# [3] = analyte COMPOUND 1, COMPOUND 1 10 mg/kg 3 h + vehicle 1 h before stimulus, oral gavage, mean ± SEM, 10 mg/kg
smiles,measurement,setting,value
"N#Cc1ccc(Cn2ccc(NC(=O)Cc3ccc(C4(C(F)(F)F)CC4)cc3)n2)nc1 [COMPOUND 1, N-[1-(5-Cyano-pyridin-2-ylmethyl)-1H-pyrazol-3-yl]-2-[4-(1-trifluoromethyl-cyclopropyl)-phenyl]-acetamide]",Seizure stage (maximal seizure stage observed during exposure to auditory stimulus),[1],3 and 2.7 ± 0.3 and 3.0 ± 0.0 and 2.9 ± 0.1 and 2.7 ± 0.2 and 2.8 ± 0.2
same,plasma and brain concentrations after administration of the compounds alone or in combination,[2]; COMPOUND 1 and LEV,similar
same,plasma and brain concentrations after administration of the compounds alone or in combination,[2]; COMPOUND 1 and lamotrigine,similar
same,plasma and brain concentrations after administration of the compounds alone or in combination,[2]; COMPOUND 1 and valproic acid,similar
same,concentration at 3 h,"[2]; brain, oral, analyte COMPOUND 1, COMPOUND 1 10 mg/kg 3 h + LEV 1 mg/kg 1 h before stimulus, oral gavage, mean ± SEM, read-out: Brain concentration total",1930 ± 100 ng/g
same,concentration at 3 h,"[2]; brain, oral, analyte COMPOUND 1, COMPOUND 1 10 mg/kg 3 h + LEV 3 mg/kg 1 h before stimulus, oral gavage, mean ± SEM, read-out: Brain concentration total",2520 ± 190 ng/g
same,concentration at 3 h,"[2]; brain, oral, analyte COMPOUND 1, COMPOUND 1 10 mg/kg 3 h + LEV 10 mg/kg 1 h before stimulus, oral gavage, mean ± SEM, read-out: Brain concentration total",2030 ± 137 ng/g
same,concentration at 3 h,"[2]; brain, oral, analyte COMPOUND 1, COMPOUND 1 10 mg/kg 3 h + LEV 50 mg/kg 1 h before stimulus, oral gavage, mean ± SEM, read-out: Brain concentration total",1810 ± 93 ng/g
same,concentration at 3 h,"[2]; brain, oral, analyte COMPOUND 1, COMPOUND 1 10 mg/kg 3 h + LTG 10 mg/kg 1 h before stimulus, oral gavage, mean ± SEM, read-out: Brain concentration total",1420 ± 165 ng/g
same,concentration at 3 h,"[2]; brain, oral, analyte COMPOUND 1, COMPOUND 1 10 mg/kg 3 h + VPA 100 mg/kg 1 h before stimulus, oral gavage, mean ± SEM, read-out: Brain concentration total",2040 ± 178 ng/g
same,concentration at 3 h,"[2]; brain, oral, analyte COMPOUND 1, COMPOUND 1 10 mg/kg 3 h + VPA 200 mg/kg 1 h before stimulus, oral gavage, mean ± SEM, read-out: Brain concentration total",1640 ± 52 ng/g
same,concentration at 3 h,"[2]; brain, oral, analyte COMPOUND 1, COMPOUND 1 30 mg/kg 3 h + LEV 3 mg/kg 1 h before stimulus, oral gavage, mean ± SEM, read-out: Brain concentration total",5960 ± 330 ng/g
same,concentration at 3 h,"[2]; brain, oral, analyte COMPOUND 1, COMPOUND 1 30 mg/kg 3 h + LEV 10 mg/kg 1 h before stimulus, oral gavage, mean ± SEM, read-out: Brain concentration total",5470 ± 533 ng/g
same,concentration at 3 h,"[2]; brain, oral, analyte COMPOUND 1, COMPOUND 1 30 mg/kg 3 h + LEV 50 mg/kg 1 h before stimulus, oral gavage, mean ± SEM, read-out: Brain concentration total",4690 ± 399 ng/g
same,concentration at 3 h,"[2]; brain, oral, analyte COMPOUND 1, COMPOUND 1 30 mg/kg 3 h + LTG 3 mg/kg 1 h before stimulus, oral gavage, mean ± SEM, read-out: Brain concentration total",5030 ± 238 ng/g
same,concentration at 3 h,"[2]; brain, oral, analyte COMPOUND 1, COMPOUND 1 30 mg/kg 3 h + LTG 10 mg/kg 1 h before stimulus, oral gavage, mean ± SEM, read-out: Brain concentration total",4260 ± 350 ng/g
same,concentration at 3 h,"[2]; brain, oral, analyte COMPOUND 1, COMPOUND 1 30 mg/kg 3 h + LTG 30 mg/kg 1 h before stimulus, oral gavage, mean ± SEM, read-out: Brain concentration total",3290 ± 170 ng/g
same,concentration at 3 h,"[2]; brain, oral, analyte COMPOUND 1, COMPOUND 1 30 mg/kg 3 h + VPA 30 mg/kg 1 h before stimulus, oral gavage, mean ± SEM, read-out: Brain concentration total",5100 ± 375 ng/g
same,concentration at 3 h,"[2]; brain, oral, analyte COMPOUND 1, COMPOUND 1 30 mg/kg 3 h + VPA 100 mg/kg 1 h before stimulus, oral gavage, mean ± SEM, read-out: Brain concentration total",5980 ± 336 ng/g
same,concentration at 3 h,"[2]; brain, oral, analyte COMPOUND 1, COMPOUND 1 30 mg/kg 3 h + VPA 200 mg/kg 1 h before stimulus, oral gavage, mean ± SEM, read-out: Brain concentration total",4990 ± 245 ng/g
same,concentration at 3 h,"[2]; brain, po, 10 mg/kg, analyte COMPOUND 1, COMPOUND 1 10 mg/kg 3 h + vehicle 1 h before stimulus, oral gavage, mean ± SEM, read-out: Brain concentration total",1450 ± 104 ng/g
same,concentration at 3 h,"[2]; brain, po, 30 mg/kg, analyte COMPOUND 1, COMPOUND 1 30 mg/kg 3 h + vehicle 1 h before stimulus, oral gavage, mean ± SEM, read-out: Brain concentration total",5230 ± 487 ng/g
same,concentration at 3 h,"[2]; plasma, oral, analyte COMPOUND 1, COMPOUND 1 10 mg/kg 3 h + LEV 1 mg/kg 1 h before stimulus, oral gavage, mean ± SEM, read-out: Plasma concentration total",1500 ± 112 ng/mL
same,concentration at 3 h,"[2]; plasma, oral, analyte COMPOUND 1, COMPOUND 1 10 mg/kg 3 h + LEV 3 mg/kg 1 h before stimulus, oral gavage, mean ± SEM, read-out: Plasma concentration total",1600 ± 111 ng/mL
same,concentration at 3 h,"[2]; plasma, oral, analyte COMPOUND 1, COMPOUND 1 10 mg/kg 3 h + LEV 10 mg/kg 1 h before stimulus, oral gavage, mean ± SEM, read-out: Plasma concentration total",1590 ± 142 ng/mL
same,concentration at 3 h,"[2]; plasma, oral, analyte COMPOUND 1, COMPOUND 1 10 mg/kg 3 h + LEV 50 mg/kg 1 h before stimulus, oral gavage, mean ± SEM, read-out: Plasma concentration total",1720 ± 124 ng/mL
same,concentration at 3 h,"[2]; plasma, oral, analyte COMPOUND 1, COMPOUND 1 10 mg/kg 3 h + LTG 10 mg/kg 1 h before stimulus, oral gavage, mean ± SEM, read-out: Plasma concentration total",1290 ± 140 ng/mL
same,concentration at 3 h,"[2]; plasma, oral, analyte COMPOUND 1, COMPOUND 1 10 mg/kg 3 h + VPA 100 mg/kg 1 h before stimulus, oral gavage, mean ± SEM, read-out: Plasma concentration total",710 ± 80 ng/mL
same,concentration at 3 h,"[2]; plasma, oral, analyte COMPOUND 1, COMPOUND 1 10 mg/kg 3 h + VPA 200 mg/kg 1 h before stimulus, oral gavage, mean ± SEM, read-out: Plasma concentration total",1160 ± 73 ng/mL
same,concentration at 3 h,"[2]; plasma, oral, analyte COMPOUND 1, COMPOUND 1 30 mg/kg 3 h + LEV 3 mg/kg 1 h before stimulus, oral gavage, mean ± SEM, read-out: Plasma concentration total",4530 ± 224 ng/mL
same,concentration at 3 h,"[2]; plasma, oral, analyte COMPOUND 1, COMPOUND 1 30 mg/kg 3 h + LEV 10 mg/kg 1 h before stimulus, oral gavage, mean ± SEM, read-out: Plasma concentration total",4120 ± 315 ng/mL
same,concentration at 3 h,"[2]; plasma, oral, analyte COMPOUND 1, COMPOUND 1 30 mg/kg 3 h + LEV 50 mg/kg 1 h before stimulus, oral gavage, mean ± SEM, read-out: Plasma concentration total",3720 ± 351 ng/mL
same,concentration at 3 h,"[2]; plasma, oral, analyte COMPOUND 1, COMPOUND 1 30 mg/kg 3 h + LTG 3 mg/kg 1 h before stimulus, oral gavage, mean ± SEM, read-out: Plasma concentration total",4550 ± 293 ng/mL
same,concentration at 3 h,"[2]; plasma, oral, analyte COMPOUND 1, COMPOUND 1 30 mg/kg 3 h + LTG 10 mg/kg 1 h before stimulus, oral gavage, mean ± SEM, read-out: Plasma concentration total",3960 ± 372 ng/mL
same,concentration at 3 h,"[2]; plasma, oral, analyte COMPOUND 1, COMPOUND 1 30 mg/kg 3 h + LTG 30 mg/kg 1 h before stimulus, oral gavage, mean ± SEM, read-out: Plasma concentration total",2920 ± 150 ng/mL
same,concentration at 3 h,"[2]; plasma, oral, analyte COMPOUND 1, COMPOUND 1 30 mg/kg 3 h + VPA 30 mg/kg 1 h before stimulus, oral gavage, mean ± SEM, read-out: Plasma concentration total",3150 ± 296 ng/mL
same,concentration at 3 h,"[2]; plasma, oral, analyte COMPOUND 1, COMPOUND 1 30 mg/kg 3 h + VPA 100 mg/kg 1 h before stimulus, oral gavage, mean ± SEM, read-out: Plasma concentration total",2820 ± 256 ng/mL
same,concentration at 3 h,"[2]; plasma, oral, analyte COMPOUND 1, COMPOUND 1 30 mg/kg 3 h + VPA 200 mg/kg 1 h before stimulus, oral gavage, mean ± SEM, read-out: Plasma concentration total",2110 ± 118 ng/mL
same,concentration at 3 h,"[2]; plasma, po, 10 mg/kg, analyte COMPOUND 1, COMPOUND 1 10 mg/kg 3 h + vehicle 1 h before stimulus, oral gavage, mean ± SEM, read-out: Plasma concentration total",2120 ± 175 ng/mL
same,concentration at 3 h,"[2]; plasma, po, 30 mg/kg, analyte COMPOUND 1, COMPOUND 1 30 mg/kg 3 h + vehicle 1 h before stimulus, oral gavage, mean ± SEM, read-out: Plasma concentration total",3090 ± 297 ng/mL
same,Brain concentration total,[2]; [3],1895 ± 75 ng/g and 2379 ± 164 ng/g and 1965 ± 138 ng/g and 1743 ± 158 ng/g and 1435 ± 55 ng/g and 1197 ± 80 ng/g
same,Plasma concentration total,[2]; [3],1128 ± 98 ng/mL and 1858 ± 116 ng/mL and 1894 ± 113 ng/mL and 1785 ± 186 ng/mL and 1318 ± 77 ng/mL and 1522 ± 109 ng/mL
